Measured values reported in patent publication US5756491A, “Antiviral cobalt-organic compounds” (priority 1991, dated 1998).

Assays:
HSV-1 McKrae Strain [1] = assay: Direct virucidal efficacy against HSV-1 on HFF monolayers; assay type: cell-based; conditions: for effective virucidal concentration IC50 / effective virucidal concentration IC90: HSV-1
Procedure: (§1) HSV-1 McKrae Strain was diluted to a final concentration of 10^5 PFU/ml in minimal essential medium (MEM). Hereinafter, this dilution is referred to as the HSV-1 Suspension for convenience.
(§2) With sufficient stirring, all the compounds completely dissolved.
Each of the drug solutions were mixed with the HSV-1 Suspension in a 1:1 ratio. The drug and HSV-1 Suspension mixture was incubated at 37° C. for thirty minutes with agitation every ten minutes. After the incubation, fifty microliter aliquots were overlaid onto triplicate confluent human foreskin fibroblast (HFF) cell monolayers. The inoculum was absorbed for thirty minutes and then a medium containing the appropriate drug concentration in MEM was added to the monolayers to a final volume of 0.5 milliliters per culture-well. The monolayers were incubated at 37° C. The developing HSV-1 Cytopathology was monitored daily for two days by inverted light microscopy. Titers were calculated by multiple regression analysis. All data is presented as the average PFU/ml reduction at 24 and/or 48 hours after inoculation (PI).
1. HSV-1 inoculated, non-compound treated HFF monolayers were included as "positive controls"; and […]

RE strain HSV-1 = assay: HSV-1 recovery from tear film, cornea and trigeminal ganglia of treated rabbits; assay type: in vivo, NZW rabbit; conditions: Example 4
Excerpt: The specified number of NZW rabbits (1.5-2.0 kg) were used. Animals were received at least two days prior to inoculation to allow them to accommodate to the conditions in the vivarium facility. This conditioning of the animals prior to inoculation minimizes animal variability. After the accommodation, the animals received a slit-lamp examination to exclude any animals with pre-existing anterior segment ocular defects. Animals were bi-laterally inoculated by intrastromal injection of 10^5 PFU RE strain HSV-1. The animals were then replaced individually into cages.
[…] This was carried out by obtaining tear film by swabbing the lower and upper conjunctival sacs and retaining the swab in the nasal fornix for 10 seconds. The swabs were eluted individually in HBSS. 50 μl aliquots of the virus-HBSS eluate were absorbed under confluent HFF cell monolayers for 5 minutes. The monolayers were hydrated with MEM, incubated at 37° C. and observed daily for 1 to 2 weeks to detect developing cytopathology consistent with HSV infection (HSV CPE).
(§3) On day 10 PI, the animals were sacrificed, the corneal epithelium was scraped from the eyes and epithelial and corneal stromal cultures were preformed on HFF cell monolayers. The separation of epithelial virus from deeper stromal virus infection allows for analysis of HSV in these distinct corneal layers. Corneal epithelial and stromal co-cultures were evaluated daily by inverted light microscopy.
At sacrifice, trigeminal ganglia were removed, washed in HBSS, minced and floated over duplicate HFF cell monolayers. The cell co-cultures were monitored by inverted light microscopy for 2 weeks. Negative cultures were blind passaged twice at 7 day intervals. Detection of HSV CPE in the whole-cell co-cultures was scored either positive or negative. HSV recovery from inventive compound-treated, TFT-treated and placebo-treated trigeminal ganglia was compared and differences in recovery rates analyzed.
as §3, with “7” for “10”, “performed” for “preformed”

[2] = tested on: human foreskin fibroblast (HFF) cell monolayers; assay: Toxicity effects controls: sham-inoculated compound-treated HFF monolayers; assay type: cell-based; as to Toxicity effects: key: +: toxic; -: no toxicity; ±: mild toxicity; T: toxicity effects interfered with CPE rating
Excerpt: as §2
In the tables, the symbols have the meaning indicated: […]

HFF cells = assay: MTT assay for cell cytotoxicity; assay type: cell-based, human; conditions: stationary cells
Procedure: Twenty-four hours prior to assay, HFF cells are plated into 96 well plates at a concentration of […] cells per well. After 24 h, the media is aspirated and […] of drug is added to the first row of wells and then diluted serially 1:5 using the automated Cetus Liquid Handling System in a manner similar to that used in the CPE assay. The plates are then incubated in a CO2 incubator at 37° C. for seven days. At this time, each well receives 50 microliters of […] solution of MTT in Dulbecco's Phosphate Buffered Saline. The plates are then incubated for an additional four hours. At this time, the media is removed and replaced with 100 μl of 0.04N hydrochloric acid in isopropanol. After shaking briefly, the plates are then read on a plate reader at 550 nm.

HSV-1 McKrae Strain [3] = assay: Intracellular antiviral activity against HSV-1 in HFF monolayers; assay type: cell-based; conditions: for antiviral efficacy (HSV-1 titer): Experiment 7 (Table 18), 24 h PI
Procedure: as §1, §2
HFF cell monolayers were inoculated with the HSV-Suspension prepared as above by absorption for thirty minutes at 37° C. After absorption of the virus, the inoculum was aspirated from the cell monolayers and the HSV-1 infected monolayers were rehydrated with medium containing the appropriate concentration of the solution of the compound by adding 500 microliters of each compound concentration to triplicate HSV-1 infected monolayers. All monolayers were incubated at 37° C. The developing HSV-1 cytopathology was monitored daily for two days by inverted light microscopy and titers were calculated by multiple […] analysis. For the intracellular anti-viral activity, "cell monolayer controls" were obtained using sham inoculated non-treated HFF cell monolayers along with the drug treated monolayers. "Positive controls" were obtained by using HSV-1 inoculated non-CTC compound treated HFF monolayers.

Question: What does the source list for CC([O-])=CC(C)=NCCN=C(C)C=C(C)[O-].[Cl-].[Co+3].c1c[nH]cn1.c1c[nH]cn1 [Compound 82]?
Answer: virucidal efficacy (HSV-1 titer) (HSV-1 McKrae Strain [1]; Experiment 1 (Table 2), 24 h PI, 0.001 mg/ml): 10^5 PFU/ml; virucidal efficacy (HSV-1 titer) (HSV-1 McKrae Strain [1]; Experiment 1 (Table 2), 24 h PI, 0.1 mg/ml): 10^2 PFU/ml; virucidal efficacy (HSV-1 titer) (HSV-1 McKrae Strain [1]; Experiment 1 (Table 2), 24 h PI, 10 mg/ml): 0 PFU/ml; virucidal efficacy (HSV-1 titer) (HSV-1 McKrae Strain [1]; Experiment 1 (Table 2), 24 h PI, .01 mg/ml): 10^4 PFU/ml; virucidal efficacy (HSV-1 titer) (HSV-1 McKrae Strain [1]; Experiment 1 (Table 2), 48 h PI, 1 mg/ml): 10^5 PFU/ml; virucidal efficacy (HSV-1 titer) (HSV-1 McKrae Strain [1]; Experiment 1 (Table 2), 48 h PI, 10 mg/ml): O/T; effective virucidal concentration IC50 (HSV-1 McKrae Strain [1]; Experiment 1 (Table 3)): 100 µg/mL; effective virucidal concentration IC90 (HSV-1 McKrae Strain [1]; Experiment 1 (Table 3)): 1000 µg/mL; virucidal efficacy (IC50) compared with 23 and 76 (HSV-1 McKrae Strain [1]; Experiment 1 comment, less than that observed for 23 and 76): one order of magnitude less; virucidal efficacy (HSV-1 titer) (HSV-1 McKrae Strain [1]; Experiment 2 (Table 5), 24 h PI, 0.001 mg/ml): 10^4 PFU/ml; virucidal efficacy (HSV-1 titer) (HSV-1 McKrae Strain [1]; Experiment 2 (Table 5), 24 h PI, 0.1 mg/ml): 10^2 PFU/ml; virucidal efficacy (HSV-1 titer) (HSV-1 McKrae Strain [1]; Experiment 2 (Table 5), 24 h PI, 10 mg/ml): 0 PFU/ml; virucidal efficacy (HSV-1 titer) (HSV-1 McKrae Strain [1]; Experiment 2 (Table 5), 48 h PI, 1 mg/ml): 10^5 PFU/ml; effective virucidal concentration IC50 (HSV-1 McKrae Strain [1]; Experiment 2 (Table 6)): 100 µg/mL; effective virucidal concentration IC90 (HSV-1 McKrae Strain [1]; Experiment 2 (Table 6)): 1000 µg/mL; recovery of HSV-1 in tear film (RE strain HSV-1): reduced the recovery of HSV-1 in tear film; toxicity effects ([2]; Experiment 1 (Table 1), 24 h PI, 0.001 mg/ml): -; toxicity effects ([2]; Experiment 1 (Table 1), 24 h PI, 0.01 mg/ml): -; toxicity effects ([2]; Experiment 1 (Table 1), 24 h PI, 0.1 mg/ml): -; toxicity effects ([2]; Experiment 1 (Table 1), 24 h PI, 1 mg/ml): -; toxicity effects ([2]; Experiment 1 (Table 1), 24 h PI, 10 mg/ml): -; toxicity effects ([2]; Experiment 1 (Table 1), 48 h PI, 0.001 mg/ml): -; toxicity effects ([2]; Experiment 1 (Table 1), 48 h PI, 0.01 mg/ml): -; toxicity effects ([2]; Experiment 1 (Table 1), 48 h PI, 0.1 mg/ml): -; toxicity effects ([2]; Experiment 1 (Table 1), 48 h PI, 1 mg/ml): -; toxicity compared with 23 and 76 ([2]; Experiment 1 comment, less than the observed toxicity of 23 and 76): one order of magnitud

Question: CC(=NCCN=C(C)C(Cl)=C(C)[O-])C(Cl)=C(C)[O-].[Br-].[Co+3].c1c[nH]cn1.c1c[nH]cn1 [Compound 93] was tested. Which “virucidal efficacy (HSV-1 titer)” value (HSV-1 McKrae Strain [1]; Experiment 4 (Table 9), 24 h PI, Run 1, 0.001 mg/ml) did it give?
Answer: 10^5 PFU/ml

Question: And the “virucidal efficacy (HSV-1 titer)” value (HSV-1 McKrae Strain [1]; Experiment 4 (Table 9), 24 h PI, Run 1, 0.5 mg/ml)?
Answer: 10^2 PFU/ml

Question: What about the “virucidal efficacy (HSV-1 titer)” value (HSV-1 McKrae Strain [1]; Experiment 4 (Table 9), 24 h PI, Run 1, 1 mg/ml) of the same compound?
Answer: 0 PFU/ml

Question: And the “virucidal efficacy (HSV-1 titer)” value (HSV-1 McKrae Strain [1]; Experiment 4 (Table 9), 24 h PI, Run 1, 5 mg/ml)?
Answer: 0 PFU/ml

Question: What about the “virucidal efficacy (HSV-1 titer)” value (HSV-1 McKrae Strain [1]; Experiment 4 (Table 9), 24 h PI, Run 2, 0.01 mg/ml) of the same compound?
Answer: 10^2 PFU/ml

Question: What about the “virucidal efficacy (HSV-1 titer)” value (HSV-1 McKrae Strain [1]; Experiment 4 (Table 9), 24 h PI, Run 2, 0.1 mg/ml) of the same compound?
Answer: 0 PFU/ml

Question: What about the “virucidal efficacy (HSV-1 titer)” value (HSV-1 McKrae Strain [1]; Experiment 4 (Table 9), 24 h PI, Run 2, 0.5 mg/ml) of the same compound?
Answer: 0 PFU/ml

Question: What about the “virucidal efficacy (HSV-1 titer)” value (HSV-1 McKrae Strain [1]; Experiment 4 (Table 9), 24 h PI, Run 2, 1 mg/ml) of the same compound?
Answer: 0 PFU/ml

Question: What about the “virucidal efficacy (HSV-1 titer)” value (HSV-1 McKrae Strain [1]; Experiment 4 (Table 9), 24 h PI, Run 2, 5 mg/ml) of the same compound?
Answer: 0 PFU/ml

Question: What about the “effective virucidal concentration IC50” value (HSV-1 McKrae Strain [1]; Experiment 4 (Table 11)) of the same compound?
Answer: 500 µg/mL

Question: And the “effective virucidal concentration IC90” value (HSV-1 McKrae Strain [1]; Experiment 4 (Table 11))?
Answer: > 1000 µg/mL

Question: What about the “virucidal efficacy (HSV-1 titer)” value (HSV-1 McKrae Strain [1]; Experiment 6 (Table 16), 24 h PI, 0.1 mg/ml) of the same compound?
Answer: 10^2 PFU/ml

Question: What about the “virucidal efficacy (HSV-1 titer)” value (HSV-1 McKrae Strain [1]; Experiment 6 (Table 16), 24 h PI, 0.5 mg/ml) of the same compound?
Answer: 0 PFU/ml

Question: What about the “virucidal efficacy (HSV-1 titer)” value (HSV-1 McKrae Strain [1]; Experiment 6 (Table 16), 24 h PI, 1 mg/ml) of the same compound?
Answer: 0 PFU/ml

Question: And the “effective virucidal concentration IC50” value (HSV-1 McKrae Strain [1]; Experiment 6 (Table 17))?
Answer: 100 µg/mL

Question: What about the “efficacy in virucidal assay (comment)” value (HSV-1 McKrae Strain [1]; Experiment 6 comment, reduction in toxicity resulted in it) of the same compound?
Answer: reduction in efficacy

Question: And the “toxicity IC50, MTT toxicity” value (HFF cells)?
Answer: 65.0 MCG/ML

Question: What about the “antiviral efficacy (HSV-1 titer)” value (HSV-1 McKrae Strain [3]; 0.001 mg/ml) of the same compound?
Answer: 10^5 PFU/ml

Question: And the “antiviral efficacy (HSV-1 titer)” value (HSV-1 McKrae Strain [3]; 0.5 mg/ml)?
Answer: 10^2 PFU/ml

Question: And the “antiviral efficacy (HSV-1 titer)” value (HSV-1 McKrae Strain [3]; 1 mg/ml)?
Answer: 0 PFU/ml

Question: And the “effective virucidal concentration IC50” value (HSV-1 McKrae Strain [3]; Experiment 7 (Table 19), HSV-1)?
Answer: 500 µg/mL

Question: And the toxicity effects ([2]; Experiment 4 (Table 10), 24 h, 0.001 mg/ml)?
Answer: -

Question: And the toxicity effects ([2]; Experiment 4 (Table 10), 24 h, 0.01 mg/ml)?
Answer: -

Question: What about the toxicity effects ([2]; Experiment 4 (Table 10), 24 h, 0.1 mg/ml) of the same compound?
Answer: -

Question: And the toxicity effects ([2]; Experiment 4 (Table 10), 24 h, 0.5 mg/ml)?
Answer: -

Question: What about the toxicity effects ([2]; Experiment 4 (Table 10), 24 h, 1 mg/ml) of the same compound?
Answer: -

Question: And the toxicity effects ([2]; Experiment 4 (Table 10), 48 h, 0.001 mg/ml)?
Answer: -

Question: And the toxicity effects ([2]; Experiment 4 (Table 10), 48 h, 0.01 mg/ml)?
Answer: -

Question: What about the toxicity effects ([2]; Experiment 4 (Table 10), 48 h, 0.5 mg/ml) of the same compound?
Answer: -

Question: What about the toxicity effects ([2]; Experiment 4 (Table 10), 48 h, 1 mg/ml) of the same compound?
Answer: -

Question: And the toxicity effects ([2]; Experiment 6 (Table 15), 48 h, 0.001 mg/ml)?
Answer: -

Question: What about the toxicity effects ([2]; Experiment 6 (Table 15), 48 h, 0.01 mg/ml) of the same compound?
Answer: -

Question: What about the “toxicity to HFF monolayers (comment)” value ([2]; Experiment 6 comment, more pronounced at 0.5 and 0.1 mg/ml, cell rounding, detaching, granularity) of the same compound?
Answer: toxicity observed
